The record followed here is PubChem BioAssay (NCI).

Among the test systems are 786-0 renal; A498 renal; A549 NSCLC; BT-549 breast; CAKI-1 renal; HCT-15 colon; HOP-92 NSCLC; HT29 colon; IGROV1 ovarian; K-562 leukemia; LOX IMVI melanoma; M14 melanoma; MCF7 breast; MDA-MB-435; RPMI-8226 leukemia; RXF 393 renal; SK-MEL-28 melanoma; SNB-75 CNS; U251 CNS; UO-31 renal.
Holding throughout (test): inhibition of tumour cell growth, NCI panel, 48 h

The structures appear in SMILES notation.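 96-well plates; 48 h exposure; 5 concentrations. Endpoints by linear interpolation between flanking doses. Not reached: highest tested concentration assigned. The concentration for full growth arrest is given as TGI.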

In the case of `O=S(=O)(SC1=NCCN1)c1ccc2ccccc2c1`, the TGI in the assay with 786-0 renal was 97.1 µM; with A498 renal, more than 100 µM; with A549 NSCLC, 86.3 µM; with BT-549 breast it was 83.9 µM; in the assay with CAKI-1 renal it was more than 100 µM; in the assay with HCT-15 colon, 71 µM. For the same compound, the TGI is more than 100 µM in the assay with HOP-92 NSCLC; 40 µM in the assay on HT29 colon; more than 100 µM in the assay on IGROV1 ovarian; 55 µM with K-562 leukemia; more than 100 µM in the assay with LOX IMVI melanoma; 63.6 µM in the assay on M14 melanoma. Moreover, the TGI in the assay with MCF7 breast is more than 100 µM; with MDA-MB-435, 42.8 µM; in the assay on RPMI-8226 leukemia it was 64 µM; in the assay on RXF 393 renal, more than 100 µM; in the assay with SK-MEL-28 melanoma it was more than 100 µM; in the assay on SNB-75 CNS it was 68 µM. Also, the values for the TGI with U251 CNS and in the assay with UO-31 renal were 54.1 µM and more than 100 µM, respectively.
In the case of `CCC/C=C/c1cc2c(cc1O)CC[C@@H]1[C@@H]2CC[C@]2(C)[C@@H](O)CC[C@@H]12`, the TGI in the assay on 786-0 renal came out at 30.1 µM; in the assay with A498 renal it was 31.8 µM; with A549 NSCLC it was 36.9 µM; in the assay with BT-549 breast it was 36.1 µM; in the assay on CAKI-1 renal it was 41.8 µM; with HCT-15 colon, 39.9 µM. In addition, the TGI in the assay on HOP-92 NSCLC came to 40.8 µM; in the assay on HT29 colon, 32.9 µM; with IGROV1 ovarian it was 49.4 µM; in the assay on K-562 leukemia, 45.5 µM; in the assay on LOX IMVI melanoma, 29.3 µM; with M14 melanoma it was 37.3 µM. Also, the TGI in the assay with MCF7 breast amounted to 52.6 µM; with MDA-MB-435 it was 32.1 µM; in the assay on RPMI-8226 leukemia, 37.5 µM; in the assay on RXF 393 renal, 33.2 µM; in the assay on SK-MEL-28 melanoma, 36.5 µM; in the assay with SNB-75 CNS it was 34.6 µM. For the same compound, the TGI stood at 30.6 µM in the assay on U251 CNS and 31 µM in the assay with UO-31 renal.
Consider `O=C1CN(C(=O)C2CCCN2C(=O)C2CCCN2)C(=O)CN1` (configuration not stated), for which the TGI with 786-0 renal, with A498 renal, in the assay on A549 NSCLC, with BT-549 breast, in the assay on CAKI-1 renal and with HCT-15 colon was more than 100 µM each time. The TGI with HOP-92 NSCLC, in the assay with HT29 colon, in the assay with IGROV1 ovarian, in the assay with K-562 leukemia, with LOX IMVI melanoma and in the assay on M14 melanoma was more than 100 µM in each case. Moreover, the TGI in the assay with MCF7 breast, in the assay on MDA-MB-435, in the assay with RPMI-8226 leukemia, in the assay on RXF 393 renal, in the assay on SK-MEL-28 melanoma and in the assay on SNB-75 CNS was more than 100 µM each time. Also, the TGI in the assay with U251 CNS and in the assay with UO-31 renal was more than 100 µM in each case.
On to `Cc1cc(C)c2c(O)c(S(=O)(=O)c3ccc(Cl)cc3)c(=O)oc2c1`, for which the TGI in the assay with 786-0 renal, in the assay with A498 renal, in the assay on A549 NSCLC, with BT-549 breast, with CAKI-1 renal and in the assay with HCT-15 colon was more than 100 µM each time. Besides, the TGI in the assay with HOP-92 NSCLC, in the assay with HT29 colon, in the assay on IGROV1 ovarian, in the assay on K-562 leukemia, in the assay on M14 melanoma and in the assay with MCF7 breast was more than 100 µM each time. The TGI with MDA-MB-435, in the assay on RPMI-8226 leukemia, in the assay on RXF 393 renal, in the assay with SK-MEL-28 melanoma, in the assay with SNB-75 CNS and in the assay with U251 CNS was more than 100 µM throughout. Further, in the assay on UO-31 renal, the TGI was more than 100 µM.
Turning to `CN(CCC(=O)O)C1=Nc2ccc(Cl)cc2C(c2ccccc2)=[N+]([O-])C1`, the TGI with 786-0 renal, in the assay on A498 renal, in the assay on A549 NSCLC, in the assay on BT-549 breast, in the assay on CAKI-1 renal and in the assay on HCT-15 colon was more than 100 µM throughout. Besides, the TGI in the assay on HOP-92 NSCLC, with HT29 colon, with IGROV1 ovarian, with K-562 leukemia, with LOX IMVI melanoma and in the assay with M14 melanoma was more than 100 µM throughout. The TGI with MCF7 breast, in the assay on MDA-MB-435, in the assay with RPMI-8226 leukemia, in the assay with RXF 393 renal, in the assay with SK-MEL-28 melanoma and in the assay with SNB-75 CNS was more than 100 µM throughout. The TGI with U251 CNS and with UO-31 renal was more than 100 µM each time.
With `CCCCCCCCCCCCN(CC(O)C(O)C(OC1OC(CO)C(O)C(O)C1O)C(O)CO)C(=O)CCCCCCCCCCC` (configuration not stated), the TGI is 33.8 µM in the assay on 786-0 renal; 41.8 µM in the assay on A498 renal; 55.3 µM in the assay with A549 NSCLC; 40.4 µM with BT-549 breast; 33.3 µM with CAKI-1 renal; 35.4 µM in the assay with HCT-15 colon. Besides, the TGI in the assay with HOP-92 NSCLC came to 39.5 µM; with HT29 colon, 34.4 µM; in the assay on IGROV1 ovarian it was 35.8 µM; in the assay with K-562 leukemia, 35.5 µM; with LOX IMVI melanoma, 41.3 µM; in the assay with M14 melanoma, 39.7 µM. Also, the TGI in the assay with MCF7 breast is more than 100 µM; with MDA-MB-435 it was 30.8 µM; in the assay with RPMI-8226 leukemia, 50.9 µM; in the assay on RXF 393 renal, 67.5 µM; in the assay with SK-MEL-28 melanoma, 31.9 µM; with SNB-75 CNS it was 35 µM. The values for the TGI with U251 CNS and with UO-31 renal were 32.6 µM and 45.8 µM, respectively.
For `CC(=N)OC1CC2CCC1(C)C2(C)C` (configuration not stated), the TGI with 786-0 renal, in the assay on A498 renal, with A549 NSCLC, with BT-549 breast, in the assay with CAKI-1 renal and with HCT-15 colon was more than 100 µM throughout. Further, the TGI in the assay on HOP-92 NSCLC, in the assay with HT29 colon, in the assay with IGROV1 ovarian, with K-562 leukemia, in the assay with LOX IMVI melanoma and in the assay with M14 melanoma was more than 100 µM in each case. In addition, the TGI in the assay with MCF7 breast, in the assay on MDA-MB-435, in the assay with RPMI-8226 leukemia, with RXF 393 renal, with SK-MEL-28 melanoma and in the assay with SNB-75 CNS was more than 100 µM throughout. Further, the TGI in the assay with U251 CNS and in the assay on UO-31 renal was more than 100 µM throughout.
In the case of `COc1nc(N=P(c2ccccc2)(c2ccccc2)c2ccccc2)cc(=O)[nH]1`, the TGI in the assay with 786-0 renal, with A498 renal, with A549 NSCLC, in the assay with BT-549 breast, with CAKI-1 renal and in the assay with HCT-15 colon was more than 100 µM in each case. For the same compound, the TGI in the assay on HOP-92 NSCLC, in the assay on HT29 colon, with IGROV1 ovarian, in the assay on K-562 leukemia, in the assay with LOX IMVI melanoma and with M14 melanoma was more than 100 µM throughout. Further, the TGI with MCF7 breast, in the assay with MDA-MB-435, in the assay on RPMI-8226 leukemia, with RXF 393 renal, in the assay with SK-MEL-28 melanoma and in the assay on SNB-75 CNS was more than 100 µM in each case. Also, the TGI in the assay with U251 CNS and with UO-31 renal was more than 100 µM in each case.
Regarding `CCCCC(=O)c1ccc2ccccc2c1O`, the TGI in the assay with 786-0 renal, with A498 renal, in the assay on BT-549 breast, in the assay on CAKI-1 renal, in the assay with HCT-15 colon and in the assay on HOP-92 NSCLC was more than 100 µM throughout. Further, the TGI in the assay with HT29 colon, in the assay with IGROV1 ovarian, in the assay on K-562 leukemia, with LOX IMVI melanoma, in the assay on M14 melanoma and in the assay on MCF7 breast was more than 100 µM each time. The TGI in the assay with MDA-MB-435, in the assay on RPMI-8226 leukemia, in the assay with RXF 393 renal, in the assay with SK-MEL-28 melanoma, in the assay on SNB-75 CNS and in the assay with U251 CNS was more than 100 µM in each case. The TGI in the assay with UO-31 renal was more than 100 µM.
As to `Clc1ccccc1-c1nc2ccc(C34CC5CC(CC(C5)C3)C4)cc2[nH]1`, the TGI with 786-0 renal was 25.9 µM; with A498 renal, 70 µM; in the assay with A549 NSCLC it was 23.4 µM; in the assay on BT-549 breast, 43.5 µM; with CAKI-1 renal, more than 100 µM; in the assay on HCT-15 colon it was more than 100 µM. Moreover, the TGI was 27.1 µM with HOP-92 NSCLC; 37.9 µM in the assay with HT29 colon; 50.4 µM with IGROV1 ovarian; more than 100 µM in the assay with K-562 leukemia; 29.8 µM with LOX IMVI melanoma; 70.7 µM in the assay with M14 melanoma. The TGI was 23.4 µM in the assay with MCF7 breast; more than 100 µM in the assay with MDA-MB-435; more than 100 µM in the assay with RPMI-8226 leukemia; 20.8 µM in the assay on RXF 393 renal; more than 100 µM in the assay on SK-MEL-28 melanoma; 21.6 µM with SNB-75 CNS. In addition, the results for the TGI in the assay with U251 CNS and in the assay on UO-31 renal were 20.5 µM and 28.1 µM, respectively.
For `O=C(O)C1CCCN(CCc2c[nH]c3ccccc23)C1` (configuration not stated), the TGI in the assay on 786-0 renal, with A498 renal, with A549 NSCLC, with BT-549 breast, in the assay on CAKI-1 renal and in the assay with HCT-15 colon was more than 100 µM each time. The TGI in the assay with HOP-92 NSCLC, in the assay on HT29 colon, in the assay on IGROV1 ovarian, in the assay with K-562 leukemia, with LOX IMVI melanoma and in the assay with M14 melanoma was more than 100 µM in each case. In addition, the TGI with MCF7 breast, in the assay on MDA-MB-435, in the assay on RPMI-8226 leukemia, in the assay with RXF 393 renal, in the assay on SK-MEL-28 melanoma and with SNB-75 CNS was more than 100 µM throughout. Besides, the TGI in the assay with U251 CNS was more than 100 µM.
